Measured values: patent US20220031800A1, “PEPTIDES FOR TREATING NON-EXUDATIVE MACULAR DEGENERATION AND OTHER DISORDERS OF THE EYE” (Allegro Pharmaceuticals, LLC, priority 2019, published 2022)
Square brackets hold non-standard residues; d marks the D form. Peptide text beside a SMILES is read from it. Cya = N[C@@H](CS(=O)(=O)O)C(=O)O

Test system: study eye of subjects with intermediate non-exudative AMD
Test: SD-OCT Analysis 2 (thickness, volume, map coverage of retinal layers)
Type: in vivo, human
Conditions: change from baseline at Week 32
Experimental: Numerous study assessments were conducted at various time points throughout the study. Included among these study assessments were; refractive eye examinations, determinations of BCVA AND low-luminance BCVA, Lanthony D-15 color vision test, measurement of intraocular pressure (IOP), Indirect ophthalmoscopy/dilated fundus examinations and spectral-domain optical coherence tomography (SD-OCT). Also, blood and saliva samples were obtained from each subject for genetic analysis. The above-listed study assessments were performed at the time points indicated in Table 1, below: The OCT scans were analyzed by two (2) unrelated experts. In Analysis #2, the OCT images of study eyes were analyzed to determine mean thickness and mean volume of numerous retinal subfields and layer segments at baseline and at Week 12 for sham eyes and at baseline and at Week 32 for risuteganib eyes, to document any significant differences between groups of eyes based on baseline measurements or changes from baseline in those measurements. In addition to the quantitative analysis of OCT images, OCT Analysis #2 included qualitative assessment of the OCT images to identify GA, pseudodrusen, and disruption of the ELM and EZ layers. FIGS. 9A, 9B and 9C illustrate the level of varying pathology within the ELM based on quantitative mapping that were also assessed, with FIG. 9A (left) showing no ELM disruption, FIG. 9B (center) showing segmental disruption, and FIG. 9C showing diffuse disruption.

[1] = risuteganib nonresponder eyes, n = 12

SMILES: C[C@@H](O)[C@H](NC(=O)[C@H](CS(=O)(=O)O)NC(=O)CNC(=O)[C@H](CCCNC(=N)N)NC(=O)CN)C(=O)N1CCC[C@H]1C(=O)O [risuteganib, Glycyl-L-arginylglycyl-3-sulfo-L-alanyl-L-threonyl-L-proline] (H-GRG[Cya]TP-OH)
- Change in mean thickness, ONL-RPE foveal center (Risuteganib Responder eyes): 0.650 μm
- Change in mean thickness, ONL-RPE mid subfield (Risuteganib Responder eyes): −6.561 μm
- Change in mean thickness, RPE-BM central subfield (Risuteganib Responder eyes): −8.238 μm
- Change in mean thickness, RPE-BM foveal center (Risuteganib Responder eyes): −12.512 μm
- Change in mean thickness, RPE-BM mid subfield (Risuteganib Responder eyes): −5.287 μm
- Change in mean thickness, Total retinal central subfield (Risuteganib Responder eyes): −0.691 μm
- Change in mean thickness, Total retinal foveal center (Risuteganib Responder eyes): 0.804 μm
- Change in mean thickness, Total retinal mid subfield (Risuteganib Responder eyes): −1.049 μm
- Change in volume, ELM-EZ central subfield (Risuteganib Responder eyes): −0.002 mm^3
- Change in volume, ELM-EZ mid subfield (Risuteganib Responder eyes): −0.003 mm^3
- Change in volume, ELM-RPE (Risuteganib Responder eyes): 0.086 mm^3
- Change in volume, ELM-RPE central subfield (Risuteganib Responder eyes): −0.002 mm^3
- Change in volume, ELM-RPE mid subfield (Risuteganib Responder eyes): −0.007 mm^3
- Change in volume, EZ-RPE (Risuteganib Responder eyes): −0.059 mm^3
- Change in volume, EZ-RPE central subfield (Risuteganib Responder eyes): −0.001 mm^3
- Change in volume, EZ-RPE mid subfield (Risuteganib Responder eyes): −0.004 mm^3
- Change in volume, ONL-EZ central subfield (Risuteganib Responder eyes): −0.004 mm^3
- Change in volume, ONL-EZ mid subfield (Risuteganib Responder eyes): −0.017 mm^3
- Change in volume, ONL-RPE (Risuteganib Responder eyes): 0.009 mm^3
- Change in volume, ONL-RPE central subfield (Risuteganib Responder eyes): −0.005 mm^3
- Change in volume, ONL-RPE mid subfield (Risuteganib Responder eyes): −0.021 mm^3
- Change in volume, RPE-BM (Risuteganib Responder eyes): −0.049 mm^3
- Change in volume, RPE-BM central subfield (Risuteganib Responder eyes): −0.007 mm^3
- Change in volume, RPE-BM mid subfield (Risuteganib Responder eyes): −0.017 mm^3
- Change in volume, Total retinal (Risuteganib Responder eyes): −0.188 mm^3
- Change in volume, Total retinal central subfield (Risuteganib Responder eyes): 0.000 mm^3
- Change in volume, Total retinal mid subfield (Risuteganib Responder eyes): −0.004 mm^3
- Map coverage, 0 μm EZ (Risuteganib Responder eyes): 3.679%
- Map coverage, 0 μm RPE-BM (Risuteganib Responder eyes): 1.099%
- Map coverage, 10 μm EZ (Risuteganib Responder eyes): 3.699%
- Map coverage, 20 μm EZ (Risuteganib Responder eyes): 3.574%
- Map coverage, 50 μm RPE-BM (Risuteganib Responder eyes): −3.49%
- Map coverage, 150 μm RPE-BM (Risuteganib Responder eyes): 3.335%
- Map coverage, 250 μm RPE-BM (Risuteganib Responder eyes): −0.011%
- Change in mean thickness, ELM-EZ central subfield (risuteganib arm, n = 24): −1.827 μm
- Change in mean thickness, ELM-EZ mid subfield (risuteganib arm, n = 24): −0.106 μm
- Change in mean thickness, ELM-RPE central subfield (risuteganib arm, n = 24): −2.912 μm
- Change in mean thickness, ELM-RPE foveal center (risuteganib arm, n = 24): −6.094 μm
- Change in mean thickness, ELM-RPE mid subfield (risuteganib arm, n = 24): −1.593 μm
- Change in mean thickness, EZ-RPE central subfield (risuteganib arm, n = 24): −1.085 μm
- Change in mean thickness, EZ-RPE foveal center (risuteganib arm, n = 24): −0.407 μm
- Change in mean thickness, EZ-RPE mid subfield (risuteganib arm, n = 24): −1.486 μm
- Change in mean thickness, Inner retina central subfield (risuteganib arm, n = 24): 3.880 μm
- Change in mean thickness, Inner retina mid subfield (risuteganib arm, n = 24): 3.893 μm
- Change in mean thickness, ONL-EZ central subfield (risuteganib arm, n = 24): −6.131 μm
- Change in mean thickness, ONL-EZ mid subfield (risuteganib arm, n = 24): −4.954 μm
- Change in mean thickness, ONL-RPE central subfield (risuteganib arm, n = 24): −7.216 μm
- Change in mean thickness, ONL-RPE foveal center (risuteganib arm, n = 24): −3.488 μm
- Change in mean thickness, ONL-RPE mid subfield (risuteganib arm, n = 24): −6.441 μm
- Change in mean thickness, RPE-BM central subfield (risuteganib arm, n = 24): −4.178 μm
- Change in mean thickness, RPE-BM foveal center (risuteganib arm, n = 24): −8.126 μm
- Change in mean thickness, RPE-BM mid subfield (risuteganib arm, n = 24): −2.086 μm
- Change in mean thickness, Total retinal central subfield (risuteganib arm, n = 24): −3.336 μm
- Change in mean thickness, Total retinal foveal center (risuteganib arm, n = 24): −4.154 μm
- Change in mean thickness, Total retinal mid subfield (risuteganib arm, n = 24): −2.548 μm
- Change in volume, ELM-EZ central subfield (risuteganib arm, n = 24): −0.001 mm^3
- Change in volume, ELM-EZ mid subfield (risuteganib arm, n = 24): 0.000 mm^3
- Change in volume, ELM-RPE (risuteganib arm, n = 24): 0.048 mm^3
- Change in volume, ELM-RPE central subfield (risuteganib arm, n = 24): −0.002 mm^3
- Change in volume, ELM-RPE mid subfield (risuteganib arm, n = 24): −0.005 mm^3
- Change in volume, EZ-RPE (risuteganib arm, n = 24): −0.027 mm^3
- Change in volume, EZ-RPE central subfield (risuteganib arm, n = 24): −0.001 mm^3
- Change in volume, EZ-RPE mid subfield (risuteganib arm, n = 24): −0.005 mm^3
- Change in volume, ONL-EZ central subfield (risuteganib arm, n = 24): −0.005 mm^3
- Change in volume, ONL-EZ mid subfield (risuteganib arm, n = 24): −0.016 mm^3
- Change in volume, ONL-RPE (risuteganib arm, n = 24): −0.009 mm^3
- Change in volume, ONL-RPE central subfield (risuteganib arm, n = 24): −0.005 mm^3
- Change in volume, ONL-RPE mid subfield (risuteganib arm, n = 24): −0.020 mm^3
- Change in volume, RPE-BM (risuteganib arm, n = 24): −0.006 mm^3
- Change in volume, RPE-BM central subfield (risuteganib arm, n = 24): −0.003 mm^3
- Change in volume, RPE-BM mid subfield (risuteganib arm, n = 24): −0.007 mm^3
- Change in volume, Total retinal (risuteganib arm, n = 24): −0.048 mm^3
- Change in volume, Total retinal central subfield (risuteganib arm, n = 24): −0.002 mm^3
- Change in volume, Total retinal mid subfield (risuteganib arm, n = 24): −0.008 mm^3
- Map coverage, 0 μm EZ (risuteganib arm, n = 24): 2.574%
- Map coverage, 0 μm RPE-BM (risuteganib arm, n = 24): 1.282%
- Map coverage, 10 μm EZ (risuteganib arm, n = 24): 2.515%
- Map coverage, 20 μm EZ (risuteganib arm, n = 24): 2.431%
- Map coverage, 50 μm RPE-BM (risuteganib arm, n = 24): −2.644%
- Map coverage, 150 μm RPE-BM (risuteganib arm, n = 24): 2.739%
- Map coverage, 250 μm RPE-BM (risuteganib arm, n = 24): −0.006%
- Change in mean thickness, ELM-EZ central subfield [1]: −1.332 μm
- Change in mean thickness, ELM-EZ mid subfield [1]: 0.754 μm
- Change in mean thickness, ELM-RPE central subfield [1]: −2.722 μm
- Change in mean thickness, ELM-RPE foveal center [1]: −12.189 μm
- Change in mean thickness, ELM-RPE mid subfield [1]: −1.044 μm
- Change in mean thickness, EZ-RPE central subfield [1]: −1.390 μm
- Change in mean thickness, EZ-RPE foveal center [1]: −1.789 μm
- Change in mean thickness, EZ-RPE mid subfield [1]: −1.798 μm
- Change in mean thickness, Inner retina central subfield [1]: 1.896 μm
